Source: patent publication US20130267551A1, “SUBSTITUTED HYDROGENATED THIENO-PYRROLO[3,2-C]PYRIDINE, LIGANDS, A PHARMACEUTICAL COMPOSITION AND A METHOD FOR USING THE ABOVE” (ALLA CHEM, LLC, priority 2010, published 2013)
Counter-ions that a name gives are not always drawn.

Experiments:
Histaminergic H2 = Histaminergic H2 (Homo sapiens, UniProt P25021); assay: competitive radioligand binding, Histaminergic H2; conditions: compound concentration of 1 μM
Experimental: (§1) Profiles of pharmacological activity of thieno-pyrrolo[3,2-c]pyridines of the general formula 1. Biological activity test of compounds of the general formula 1 was carried out in the setting of competitive radioligand binding [I. Okun, S. Tkachenko, A. Khvat, et al., Current Alzheimer Research, 7(2), 97-112 (2010)], using a wide range of therapeutic targets including G-protein coupled receptors (GPCR), ion channels and neuromediator transporters. The tested activity was determined by quantitative measurement of radio-labelled ligand displacement by tested compounds of the general formula 1 at their concentration of 1 μM.

Serotoninergic 5-HT2B = Serotoninergic 5-HT2B (Homo sapiens, UniProt P41595); assay: competitive radioligand binding, Serotoninergic 5-HT2B; conditions: compound concentration of 1 μM
Sequence of Serotoninergic 5-HT2B (P41595 whole entry): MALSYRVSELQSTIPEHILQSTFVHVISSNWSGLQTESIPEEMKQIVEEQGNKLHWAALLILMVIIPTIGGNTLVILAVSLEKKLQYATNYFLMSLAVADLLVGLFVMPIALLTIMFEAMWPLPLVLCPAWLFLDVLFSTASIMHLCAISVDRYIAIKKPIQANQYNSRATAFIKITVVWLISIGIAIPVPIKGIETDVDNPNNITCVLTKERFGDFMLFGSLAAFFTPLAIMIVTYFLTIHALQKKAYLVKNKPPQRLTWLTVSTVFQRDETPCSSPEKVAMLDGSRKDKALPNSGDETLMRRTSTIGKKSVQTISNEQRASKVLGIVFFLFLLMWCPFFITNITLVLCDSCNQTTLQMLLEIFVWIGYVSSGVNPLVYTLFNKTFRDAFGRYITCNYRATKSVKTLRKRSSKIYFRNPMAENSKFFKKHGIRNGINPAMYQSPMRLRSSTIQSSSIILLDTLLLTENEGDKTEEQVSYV
Experimental: as §1

Dopaminergic D4.2 = target: T1, Dopaminergic D4.2 (Homo sapiens, UniProt P21917, DEL265-296); assay: competitive radioligand binding, Dopaminergic D4.2; conditions: compound concentration of 1 μM
T1 sequence (P21917 with tags, fused parts or gaps DEL265-296): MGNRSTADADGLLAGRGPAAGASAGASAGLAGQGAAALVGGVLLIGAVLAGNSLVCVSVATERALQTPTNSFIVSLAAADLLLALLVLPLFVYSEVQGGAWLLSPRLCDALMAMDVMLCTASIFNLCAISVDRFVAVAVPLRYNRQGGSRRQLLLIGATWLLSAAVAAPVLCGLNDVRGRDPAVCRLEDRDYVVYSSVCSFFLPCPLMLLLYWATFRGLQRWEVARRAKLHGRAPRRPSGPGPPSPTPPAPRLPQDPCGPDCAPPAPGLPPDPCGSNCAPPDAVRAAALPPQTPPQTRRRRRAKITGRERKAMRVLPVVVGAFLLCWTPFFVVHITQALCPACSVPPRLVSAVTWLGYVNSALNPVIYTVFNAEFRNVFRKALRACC
Experimental: as §1

[1] = test system: Therapeutic targets (Adrenergic, Dopaminergic, Histaminergic, Serotoninergic); assay: Profiles of pharmacological activity in competitive radioligand binding (whole panel); conditions: 1 μM, grades not defined
Experimental: as §1

Serotoninergic 5-HT6 = Serotoninergic 5-HT6 (Homo sapiens, UniProt P50406); assay: competitive radioligand binding, Serotoninergic 5-HT6; conditions: compound concentration of 1 μM
Sequence of Serotoninergic 5-HT6 (P50406 whole entry): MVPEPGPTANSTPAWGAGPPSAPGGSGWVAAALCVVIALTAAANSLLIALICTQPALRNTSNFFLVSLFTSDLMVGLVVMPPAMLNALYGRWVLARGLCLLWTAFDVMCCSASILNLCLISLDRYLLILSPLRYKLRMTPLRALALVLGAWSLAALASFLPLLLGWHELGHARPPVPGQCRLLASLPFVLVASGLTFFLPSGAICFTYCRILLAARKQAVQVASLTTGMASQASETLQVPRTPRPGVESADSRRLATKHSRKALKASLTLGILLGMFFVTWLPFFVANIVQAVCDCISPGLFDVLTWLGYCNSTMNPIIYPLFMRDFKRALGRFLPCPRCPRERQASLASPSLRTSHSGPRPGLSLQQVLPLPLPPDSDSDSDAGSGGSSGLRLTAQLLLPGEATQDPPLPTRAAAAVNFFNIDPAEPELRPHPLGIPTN
Experimental: as §1

Dopaminergic D2L = Dopaminergic D2L (Homo sapiens, UniProt P14416); assay: competitive radioligand binding, Dopaminergic D2L; conditions: compound concentration of 1 μM
Sequence of Dopaminergic D2L (P14416 whole entry): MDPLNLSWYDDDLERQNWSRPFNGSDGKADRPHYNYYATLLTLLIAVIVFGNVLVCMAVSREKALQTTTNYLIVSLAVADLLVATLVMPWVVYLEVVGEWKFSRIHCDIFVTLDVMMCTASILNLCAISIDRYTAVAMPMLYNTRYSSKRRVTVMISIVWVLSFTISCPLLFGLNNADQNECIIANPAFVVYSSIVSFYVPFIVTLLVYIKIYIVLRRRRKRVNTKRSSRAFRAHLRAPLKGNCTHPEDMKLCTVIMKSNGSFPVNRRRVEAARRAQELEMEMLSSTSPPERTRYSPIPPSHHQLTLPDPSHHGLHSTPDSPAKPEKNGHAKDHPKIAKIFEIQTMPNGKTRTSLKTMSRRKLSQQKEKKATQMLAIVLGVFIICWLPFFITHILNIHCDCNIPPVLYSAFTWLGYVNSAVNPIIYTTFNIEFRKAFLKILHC
Experimental: as §1

Adrenergic α1B = assay: competitive radioligand binding, Adrenergic α1B; conditions: compound concentration of 1 μM
Experimental: as §1

Histaminergic H1 = Histaminergic H1 (Homo sapiens, UniProt P35367); assay: competitive radioligand binding, Histaminergic H1; conditions: compound concentration of 1 μM
Sequence of Histaminergic H1 (P35367 whole entry): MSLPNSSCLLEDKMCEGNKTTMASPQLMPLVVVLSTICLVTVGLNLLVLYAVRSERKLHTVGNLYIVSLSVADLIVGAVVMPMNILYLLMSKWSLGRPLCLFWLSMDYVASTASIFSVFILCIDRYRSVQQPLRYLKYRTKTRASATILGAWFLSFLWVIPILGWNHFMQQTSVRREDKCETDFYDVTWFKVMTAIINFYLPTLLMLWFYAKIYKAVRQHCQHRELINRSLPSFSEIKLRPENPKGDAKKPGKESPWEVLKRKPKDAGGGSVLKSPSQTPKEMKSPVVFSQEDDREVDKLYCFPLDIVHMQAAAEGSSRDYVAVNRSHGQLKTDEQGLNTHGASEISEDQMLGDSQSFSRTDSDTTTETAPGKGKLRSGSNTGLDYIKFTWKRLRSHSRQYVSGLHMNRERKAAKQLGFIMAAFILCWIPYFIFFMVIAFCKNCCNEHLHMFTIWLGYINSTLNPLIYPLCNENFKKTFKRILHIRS
Experimental: as §1

Serotoninergic 5-HT2C = target: T2, Serotoninergic 5-HT2C (Homo sapiens, UniProt P28335); assay: competitive radioligand binding, Serotoninergic 5-HT2C; conditions: compound concentration of 1 μM
T2 sequence (P28335 33-458): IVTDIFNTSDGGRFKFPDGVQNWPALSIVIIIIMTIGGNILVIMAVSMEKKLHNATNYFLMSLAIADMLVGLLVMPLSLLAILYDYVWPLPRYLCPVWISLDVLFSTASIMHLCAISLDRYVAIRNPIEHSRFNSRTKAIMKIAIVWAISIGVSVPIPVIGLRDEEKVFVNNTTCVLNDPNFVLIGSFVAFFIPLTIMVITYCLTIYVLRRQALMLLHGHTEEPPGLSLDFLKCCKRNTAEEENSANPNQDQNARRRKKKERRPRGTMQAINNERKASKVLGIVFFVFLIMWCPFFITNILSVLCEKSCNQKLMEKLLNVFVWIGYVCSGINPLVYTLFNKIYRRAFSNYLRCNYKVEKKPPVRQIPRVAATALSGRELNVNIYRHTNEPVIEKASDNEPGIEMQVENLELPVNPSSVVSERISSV
Experimental: as §1

Adrenergic α1D = target: T3, Adrenergic α1D (Homo sapiens, UniProt P25100); assay: competitive radioligand binding, Adrenergic α1D; conditions: compound concentration of 1 μM
T3 sequence (P25100 1-572): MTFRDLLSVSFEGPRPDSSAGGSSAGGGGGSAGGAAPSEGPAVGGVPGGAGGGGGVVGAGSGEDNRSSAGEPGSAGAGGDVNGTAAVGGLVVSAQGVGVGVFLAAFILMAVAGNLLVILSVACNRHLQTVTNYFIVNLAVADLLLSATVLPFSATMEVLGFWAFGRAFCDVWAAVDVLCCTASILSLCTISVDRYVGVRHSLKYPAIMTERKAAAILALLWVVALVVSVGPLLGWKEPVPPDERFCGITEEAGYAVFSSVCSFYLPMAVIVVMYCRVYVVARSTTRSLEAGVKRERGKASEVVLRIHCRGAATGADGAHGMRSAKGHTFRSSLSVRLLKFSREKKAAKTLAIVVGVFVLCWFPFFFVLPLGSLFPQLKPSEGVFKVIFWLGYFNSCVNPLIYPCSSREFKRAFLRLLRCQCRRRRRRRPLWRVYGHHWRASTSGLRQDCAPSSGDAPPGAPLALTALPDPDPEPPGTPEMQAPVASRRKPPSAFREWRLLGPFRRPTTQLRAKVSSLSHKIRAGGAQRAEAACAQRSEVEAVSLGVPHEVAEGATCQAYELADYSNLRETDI
Experimental: as §1

Adrenergic α1A = assay: competitive radioligand binding, Adrenergic α1A; conditions: compound concentration of 1 μM
Experimental: as §1

Serotoninergic 5-HT7 = Serotoninergic 5-HT7 (Homo sapiens, UniProt P34969); assay: competitive radioligand binding, Serotoninergic 5-HT7; conditions: compound concentration of 1 μM
Sequence of Serotoninergic 5-HT7 (P34969 whole entry): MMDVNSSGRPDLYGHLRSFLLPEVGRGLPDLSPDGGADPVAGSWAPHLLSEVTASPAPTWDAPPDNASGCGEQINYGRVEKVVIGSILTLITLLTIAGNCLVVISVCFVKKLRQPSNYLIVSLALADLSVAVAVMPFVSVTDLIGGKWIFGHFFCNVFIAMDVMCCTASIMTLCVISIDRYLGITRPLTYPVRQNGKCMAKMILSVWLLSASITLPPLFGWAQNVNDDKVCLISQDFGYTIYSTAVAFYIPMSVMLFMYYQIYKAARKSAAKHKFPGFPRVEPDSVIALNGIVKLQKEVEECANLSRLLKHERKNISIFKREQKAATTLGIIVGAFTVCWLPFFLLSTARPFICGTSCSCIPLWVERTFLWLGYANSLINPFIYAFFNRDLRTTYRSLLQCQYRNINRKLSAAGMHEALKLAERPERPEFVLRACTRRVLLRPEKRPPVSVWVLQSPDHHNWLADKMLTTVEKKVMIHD
Experimental: as §1

Dopaminergic D2S = Dopaminergic D2S (Homo sapiens, UniProt P14416); assay: competitive radioligand binding, Dopaminergic D2S; conditions: compound concentration of 1 μM
Sequence of Dopaminergic D2S (P14416 1-414 isoform P14416-2): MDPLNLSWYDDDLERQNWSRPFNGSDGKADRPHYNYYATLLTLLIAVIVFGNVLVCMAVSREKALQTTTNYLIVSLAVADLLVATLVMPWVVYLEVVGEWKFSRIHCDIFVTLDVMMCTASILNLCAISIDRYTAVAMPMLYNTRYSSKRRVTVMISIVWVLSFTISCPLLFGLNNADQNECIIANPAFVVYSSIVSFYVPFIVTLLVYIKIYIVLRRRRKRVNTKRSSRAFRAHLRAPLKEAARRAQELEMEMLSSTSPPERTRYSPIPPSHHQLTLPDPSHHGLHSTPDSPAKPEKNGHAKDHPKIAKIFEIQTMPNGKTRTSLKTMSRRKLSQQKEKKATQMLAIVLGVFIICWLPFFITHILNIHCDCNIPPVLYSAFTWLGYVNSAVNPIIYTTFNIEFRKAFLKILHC
Experimental: as §1

Histaminergic H3 = Histaminergic H3 (Homo sapiens, UniProt Q9Y5N1); assay: competitive radioligand binding, Histaminergic H3; conditions: compound concentration of 1 μM; in % (unit assumed)
Sequence of Histaminergic H3 (Q9Y5N1 whole entry): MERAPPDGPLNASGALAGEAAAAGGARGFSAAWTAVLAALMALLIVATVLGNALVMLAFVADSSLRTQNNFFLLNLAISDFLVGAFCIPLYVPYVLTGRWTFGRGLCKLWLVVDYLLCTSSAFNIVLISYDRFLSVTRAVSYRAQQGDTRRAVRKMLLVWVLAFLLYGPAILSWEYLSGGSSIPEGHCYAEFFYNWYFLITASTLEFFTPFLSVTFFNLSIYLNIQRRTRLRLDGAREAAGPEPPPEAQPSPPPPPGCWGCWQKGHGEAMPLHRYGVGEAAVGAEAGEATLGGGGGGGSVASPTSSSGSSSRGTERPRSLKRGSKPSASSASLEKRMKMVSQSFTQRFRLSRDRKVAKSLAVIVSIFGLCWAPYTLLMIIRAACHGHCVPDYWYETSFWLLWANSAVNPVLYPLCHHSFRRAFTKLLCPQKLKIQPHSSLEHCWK
Experimental: as §1

Adrenergic α2A = target: T4, Adrenergic α2A (Homo sapiens, UniProt P08913); assay: competitive radioligand binding, Adrenergic α2A; conditions: compound concentration of 1 μM
T4 sequence (P08913 1-465): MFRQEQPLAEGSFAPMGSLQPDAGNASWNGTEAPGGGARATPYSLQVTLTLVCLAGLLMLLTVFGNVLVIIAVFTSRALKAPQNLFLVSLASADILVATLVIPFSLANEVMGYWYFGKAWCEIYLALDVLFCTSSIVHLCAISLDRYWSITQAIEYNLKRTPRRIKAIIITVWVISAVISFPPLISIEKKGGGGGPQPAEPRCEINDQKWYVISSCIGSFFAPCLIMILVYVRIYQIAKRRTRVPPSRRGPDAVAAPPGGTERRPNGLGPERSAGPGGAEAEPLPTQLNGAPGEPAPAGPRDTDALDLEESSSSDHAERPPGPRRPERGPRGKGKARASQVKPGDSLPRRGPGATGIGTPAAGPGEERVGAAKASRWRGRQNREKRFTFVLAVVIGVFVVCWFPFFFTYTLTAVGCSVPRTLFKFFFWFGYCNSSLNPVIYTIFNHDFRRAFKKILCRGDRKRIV
Experimental: as §1

Dopaminergic D1 = Dopaminergic D1 (Homo sapiens, UniProt P21728); assay: competitive radioligand binding, Dopaminergic D1; conditions: compound concentration of 1 μM
Sequence of Dopaminergic D1 (P21728 whole entry): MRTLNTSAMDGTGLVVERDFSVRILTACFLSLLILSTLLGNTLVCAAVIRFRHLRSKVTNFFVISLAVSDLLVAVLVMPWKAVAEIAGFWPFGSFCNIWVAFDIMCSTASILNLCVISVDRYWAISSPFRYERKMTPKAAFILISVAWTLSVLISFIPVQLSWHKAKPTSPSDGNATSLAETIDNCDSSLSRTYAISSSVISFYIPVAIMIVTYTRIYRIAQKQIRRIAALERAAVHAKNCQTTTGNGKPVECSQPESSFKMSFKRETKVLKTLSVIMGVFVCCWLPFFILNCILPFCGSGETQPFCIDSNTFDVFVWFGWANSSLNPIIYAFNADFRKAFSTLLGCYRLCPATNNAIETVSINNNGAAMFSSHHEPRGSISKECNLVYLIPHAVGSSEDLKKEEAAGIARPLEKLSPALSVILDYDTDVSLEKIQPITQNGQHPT
Experimental: as §1

Serotoninergic 5-HT1A = target: T5, Serotoninergic 5-HT1A (Homo sapiens, UniProt P08908); assay: competitive radioligand binding, Serotoninergic 5-HT1A; conditions: compound concentration of 1 μM
T5 sequence (P08908 1-422): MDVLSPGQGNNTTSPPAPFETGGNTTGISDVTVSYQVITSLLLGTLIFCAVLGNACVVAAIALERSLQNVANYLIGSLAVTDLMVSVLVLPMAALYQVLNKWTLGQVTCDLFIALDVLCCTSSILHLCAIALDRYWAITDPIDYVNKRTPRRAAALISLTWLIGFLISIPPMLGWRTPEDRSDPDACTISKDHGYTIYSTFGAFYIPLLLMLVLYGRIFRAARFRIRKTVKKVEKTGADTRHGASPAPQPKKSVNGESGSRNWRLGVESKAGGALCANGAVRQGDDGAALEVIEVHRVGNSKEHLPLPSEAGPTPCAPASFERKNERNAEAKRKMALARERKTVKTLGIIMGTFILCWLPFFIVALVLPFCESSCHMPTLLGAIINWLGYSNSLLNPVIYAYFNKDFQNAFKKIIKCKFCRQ
Experimental: as §1

Serotoninergic 5-HT1B = assay: competitive radioligand binding, Serotoninergic 5-HT1B; conditions: compound concentration of 1 μM
Experimental: as §1

Dopaminergic D3 = Dopaminergic D3 (Homo sapiens, UniProt P35462); assay: competitive radioligand binding, Dopaminergic D3; conditions: compound concentration of 1 μM
Sequence of Dopaminergic D3 (P35462 whole entry): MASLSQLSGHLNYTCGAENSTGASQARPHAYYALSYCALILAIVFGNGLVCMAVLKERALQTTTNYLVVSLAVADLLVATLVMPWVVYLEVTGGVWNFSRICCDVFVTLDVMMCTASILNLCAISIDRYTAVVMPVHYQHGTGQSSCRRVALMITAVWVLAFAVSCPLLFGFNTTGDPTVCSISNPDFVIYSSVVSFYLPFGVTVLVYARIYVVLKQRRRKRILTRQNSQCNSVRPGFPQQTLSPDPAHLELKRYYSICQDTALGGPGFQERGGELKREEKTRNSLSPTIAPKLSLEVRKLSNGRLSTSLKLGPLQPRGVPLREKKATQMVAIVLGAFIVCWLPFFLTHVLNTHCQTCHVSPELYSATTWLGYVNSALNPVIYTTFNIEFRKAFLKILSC
Experimental: as §1

Serotoninergic 5-HT2A = Serotoninergic 5-HT2A (Homo sapiens, UniProt P28223); assay: competitive radioligand binding, Serotoninergic 5-HT2A; conditions: compound concentration of 1 μM
Sequence of Serotoninergic 5-HT2A (P28223 whole entry): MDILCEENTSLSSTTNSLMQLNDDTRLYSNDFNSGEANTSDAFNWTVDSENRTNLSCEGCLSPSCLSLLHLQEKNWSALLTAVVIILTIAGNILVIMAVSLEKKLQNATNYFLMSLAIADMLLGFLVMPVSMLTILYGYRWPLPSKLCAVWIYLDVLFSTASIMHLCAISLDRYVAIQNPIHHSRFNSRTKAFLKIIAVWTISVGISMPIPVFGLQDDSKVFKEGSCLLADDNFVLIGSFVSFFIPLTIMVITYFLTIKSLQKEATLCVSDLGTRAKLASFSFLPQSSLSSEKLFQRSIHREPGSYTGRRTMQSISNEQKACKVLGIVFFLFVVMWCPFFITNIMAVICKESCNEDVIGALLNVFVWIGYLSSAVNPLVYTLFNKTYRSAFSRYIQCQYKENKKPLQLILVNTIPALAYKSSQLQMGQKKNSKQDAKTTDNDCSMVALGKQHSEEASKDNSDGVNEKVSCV
Experimental: as §1

Sequence of Histaminergic H2 (P25021 whole entry): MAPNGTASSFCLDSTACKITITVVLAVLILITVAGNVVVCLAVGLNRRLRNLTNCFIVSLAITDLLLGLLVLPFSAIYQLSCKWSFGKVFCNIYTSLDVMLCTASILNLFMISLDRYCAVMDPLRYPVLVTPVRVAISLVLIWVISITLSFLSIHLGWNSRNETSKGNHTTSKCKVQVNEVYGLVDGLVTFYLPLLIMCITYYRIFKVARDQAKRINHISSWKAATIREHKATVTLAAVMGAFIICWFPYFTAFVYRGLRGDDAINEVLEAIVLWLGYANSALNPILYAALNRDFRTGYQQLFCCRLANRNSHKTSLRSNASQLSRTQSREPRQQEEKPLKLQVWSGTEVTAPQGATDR

| SMILES | radio-labelled ligand displacement, Histaminergic H2 (Histaminergic H2) [%] | radio-labelled ligand displacement, Serotoninergic 5-HT2B (Serotoninergic 5-HT2B) [%] | radio-labelled ligand displacement, Dopaminergic D4.2 (Dopaminergic D4.2) [%] | grade of the activity profile (poor / satisfactory / good) [1] | radio-labelled ligand displacement, Serotoninergic 5-HT6 (Serotoninergic 5-HT6) [%] | radio-labelled ligand displacement, Dopaminergic D2L (Dopaminergic D2L) [%] | radio-labelled ligand displacement, Adrenergic α1B (Adrenergic α1B) [%] | radio-labelled ligand displacement, Histaminergic H1 (Histaminergic H1) [%] | radio-labelled ligand displacement, Serotoninergic 5-HT2C (Serotoninergic 5-HT2C) [%] | radio-labelled ligand displacement, Adrenergic α1D (Adrenergic α1D) [%] | radio-labelled ligand displacement, Adrenergic α1A (Adrenergic α1A) [%] | radio-labelled ligand displacement, Serotoninergic 5-HT7 (Serotoninergic 5-HT7) [%] | radio-labelled ligand displacement, Dopaminergic D2S (Dopaminergic D2S) [%] | radio-labelled ligand displacement, Histaminergic H3 (Histaminergic H3) | radio-labelled ligand displacement, Adrenergic α2A (Adrenergic α2A) [%] | radio-labelled ligand displacement, Dopaminergic D1 (Dopaminergic D1) [%] | radio-labelled ligand displacement, Serotoninergic 5-HT1A (Serotoninergic 5-HT1A) [%] | radio-labelled ligand displacement, Serotoninergic 5-HT1B (Serotoninergic 5-HT1B) [%] | radio-labelled ligand displacement, Dopaminergic D3 (Dopaminergic D3) [%] | radio-labelled ligand displacement, Serotoninergic 5-HT2A (Serotoninergic 5-HT2A) [%] |
| --- | --- | --- | --- | --- | --- | --- | --- | --- | --- | --- | --- | --- | --- | --- | --- | --- | --- | --- | --- | --- |
| Cc1cc2c3c(n(CCc4ccc(Cl)cc4)c2s1)C(C)CN(C)C3 (centres unmarked) [3.6(4)•HCl, 2,5,7-trimethyl-8-(4-chlorophenethyl)-4,5,6,7-tetrahydro-5H-thieno[3′,2′:4,5]pyrrolo[3,2-c]pyridine] | 63 | 78 | 54 | good | 99 | 45 | 91 | 95 | 96 | 89 | 89 | 99 | 72 | 8 | 93 | 56 | 29 | 41 | 63 | 97 |
| Cc1cc2c3c(n(CC(O)c4ccccc4)c2s1)CCN(C)C3.Cl (centres unmarked) [3.7(1)•HCl, 2-(2,5-Dimethyl-4,5,6,7-tetrahydro-5H-thieno[3′,2′:4,5]pyrrolo[3,2-c]pyridin-8-yl)-1-phenylethanol hydrochloride] | 57 | 63 | 33 |  | 99 | 35 | 89 | 89 | 94 | 86 | 79 | 96 | 29 | −3 | 91 | 47 | 18 | 30 | 23 | 97 |
| Cc1ccc(C=CCn2c3c(c4cc(C)sc42)CN(C)CC3)cc1 [3.11(2)•HCl, 2,5-dimethyl-8-[3-(p-tolyl)allyl]-4,5,6,7-tetrahydro-5H-thieno[3′,2′:4,5]pyrrolo[3,2-c]pyridine] | 50 | 89 | 13 | satisfactory | 95 | 50 | 60 | 81 | 93 | 42 | 55 | 85 | 61 | 7 | 53 | 10 | 21 | 39 | 49 | 93 |
